This note sets out measurements from patent US5358946A, “Heterocycle-substituted amides, carbamates and ureas as agents for the treatment of atherosclerosis” (The Du Pont Merck Pharmaceutical Company, priority 1992, dated 1994).

In one assay the target is T1, ACAT (Mus musculus, UniProt Q61263).
T1 construct: endogenous in cells; host or cells: J774.A1 (murine macrophage-like)
T1 sequence (Q61263 1-540): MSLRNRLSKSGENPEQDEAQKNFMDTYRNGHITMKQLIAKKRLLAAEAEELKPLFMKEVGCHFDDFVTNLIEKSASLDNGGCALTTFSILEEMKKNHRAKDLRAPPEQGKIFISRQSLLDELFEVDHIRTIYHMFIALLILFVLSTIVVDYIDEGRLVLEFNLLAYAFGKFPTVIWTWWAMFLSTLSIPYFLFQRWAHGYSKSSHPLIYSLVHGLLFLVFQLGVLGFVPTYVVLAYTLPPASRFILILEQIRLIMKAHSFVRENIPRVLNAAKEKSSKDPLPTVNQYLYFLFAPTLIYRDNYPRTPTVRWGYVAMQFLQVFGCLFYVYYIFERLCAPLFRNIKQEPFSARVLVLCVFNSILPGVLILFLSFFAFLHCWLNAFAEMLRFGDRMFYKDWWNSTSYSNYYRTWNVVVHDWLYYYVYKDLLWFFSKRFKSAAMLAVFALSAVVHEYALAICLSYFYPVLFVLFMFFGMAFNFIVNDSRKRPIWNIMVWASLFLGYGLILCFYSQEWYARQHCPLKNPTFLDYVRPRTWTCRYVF
Briefly: Inhibition of cholesterol esterification in the murine macrophage-like cell line J774.A1. Type of assay: cell-based. Conditions: J774.A1 cells, ac-LDL loaded, 14C-oleic acid pulse. Here is the method:
The esterification of cholesterol was determined in the murine macrophage-like cell line J774.A1. Cells were seeded in 35 mm wells at a density of 300,000 cells per well in 2 mls of Dulbecco's Eagle Medium (DMEM) supplemented with 10% fetal bovine serum (FBS). Cells were incubated at 37° C. in an atmosphere of 5% CO2 and 93% humidity. After […] the media was changed to 0.68 mls 10% FBS-DMEM containing 34 μg of acetylated human low density lipoprotein (ac-LDL) to increase the intracellular concentration of cholesterol and promote esterification. At 41 hours, various inhibitors were added to the cells in DMSO (10 μl/ml maximum). At 43 hours, the cells were pulsed with 0.1 mM ^14 C-oleic acid (10,000 dpm/nmol) complexed with BSA (bovine serum albumin) to follow cholesterol ester formation. The experiment was terminated at 45 hours by washing the monolayers 3 times with 3 ml of Tris-buffered saline at 4° C. The lipids were extracted by incubating the monolayers with 1.5 ml of hexane: isopropanol (3:2, v/v) for 30 min. under gentle agitation. During this period, 10,000 dpm ^3 H-cholesterol oleate and 10 μg of unlabeled cholesteryl oleate, oleic acid, triolein and cholesterol were added as an […] standard and carriers. The organic solvent was removed and the cells were washed with an additional 1.0 ml of hexane: isopropanol which was combined with the original extract. The cells were allowed to dry overnight, digested with 2.0 ml of 0.2N sodium hydroxide for 1 hour and an aliquot of the solubilized protein used for protein determination using the Lowry method. […] Extracts were collected in scintillation vials to determine the amount of radioactivity. The conversion of oleic acid to cholesteryl ester in the control averaged 0.54 mmol/hour/mg protein and was increased upon the addition of ac-LDL to about 10.689±0.69 mmol/hour/mg protein.

Assay [1] addresses T2, acyl-CoA: cholesterol acyltransferase (ACAT) (Rattus norvegicus, UniProt Q7TQM4).
T2 construct: Microsomes were obtained by differential centrifugation; from tissue; host or cells: liver microsomes of male Sprague Dawley rats
T2 sequence (Q7TQM4 1-524): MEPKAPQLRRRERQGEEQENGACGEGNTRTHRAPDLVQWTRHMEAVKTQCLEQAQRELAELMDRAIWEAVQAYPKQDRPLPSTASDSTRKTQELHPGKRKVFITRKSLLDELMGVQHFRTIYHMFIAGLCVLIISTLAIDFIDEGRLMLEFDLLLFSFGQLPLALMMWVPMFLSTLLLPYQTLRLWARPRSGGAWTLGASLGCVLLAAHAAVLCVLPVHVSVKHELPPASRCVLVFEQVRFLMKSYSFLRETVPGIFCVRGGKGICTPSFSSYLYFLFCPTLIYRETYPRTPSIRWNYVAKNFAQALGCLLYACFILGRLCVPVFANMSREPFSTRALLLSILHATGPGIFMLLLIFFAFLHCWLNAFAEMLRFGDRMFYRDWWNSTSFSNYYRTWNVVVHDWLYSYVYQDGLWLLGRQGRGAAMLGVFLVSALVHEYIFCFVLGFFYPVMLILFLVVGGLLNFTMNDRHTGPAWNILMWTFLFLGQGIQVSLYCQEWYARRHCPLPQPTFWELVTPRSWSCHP
Briefly: Inhibition of Acyl-CoA: Cholesterol Acyltransferase (ACAT) in hepatic microsomes (in vitro hepatic ACAT activity). It counts as biochemical, rat (male Sprague Dawley). The following applies: 14C-oleoyl-CoA, 15 min preincubation at 37° C., pH 7.4, read-out: Inhibition of Cholesterol Esterification (IC50). The protocol:
The ability of the compounds to inhibit ACAT, the enzyme responsible for the intracellular synthesis of cholesteryl esters, was tested as follows. Male Sprague Dawley rats weighing 150-300 g, were fed rat chow ad libitum. The animals were fasted for twenty-four hours prior to being sacrificed by decapitation. The livers were perfused in situ with 50 ml of cold 0.25M sucrose, excised, and homogenized in three volumes of 0.1M phosphate buffer, pH 7.4, that contained 0.5 mM EDTA (ethylenediaminetetraacetic acid), 1.0 mM glutathione, 0.25M sucrose and […]. Microsomes were obtained by differential centrifugation; the supernatant from an initial spin at 15,000×g for 15 minutes was centrifuged at 105,000×g for 1 hour to pellet the microsomes. The microsomes were suspended in homogenization buffer, reisolated by centrifugation, and stored at -70° C. Microsomes were used within one month of preparation.
The control assay in a final volume of 200 μl consisted of 200 μg of microsomal protein, 75μ<^14 C-oleoyl-CoA (10,000 dpm/nmol) in 0.1M phosphate, pH 7.4, that contained 1 mM glutathione. Compounds were added in 5 μl of DMSO (dimethyl sulfoxide) and additional controls were run with DMSO only. All components, except the oleoyl-CoA, were preincubated for 15 min. at 37° C. prior to the initiation of the reaction by the addition of oleoyl-CoA. The assay was terminated after 10 min. by the addition of 4 ml of chloroform:methanol (2:1, v/v). 20,000 dpm of 3H-choledsteryl oleate and 10 μg of unlabeled cholesteryl oleate and oleic acid were added as an internal standard and carriers, respectively. After allowing 10 min. for lipid extraction, 0.8 ml of deionized water was added to separte the solution into two phases. The lower chloroform phase was collected, dried under nitrogen and resuspended in 2 ml of hexane:diethyl ether (97:3 v/v). The lipids were then loaded onto BAKERSBOND spe* silica gel columns. Extracts were collected in scintillation vials and counted for radioactivity. The specific activity of ACAT in the control incubation averaged 260 pmol/min/mg microsomal protein.

A word on the IC50: it is the concentration that inhibits the measured activity by half. For the molecule `CCCCOCCN(CCCCCSc1nc(-c2ccccc2)c(-c2ccccc2)[nH]1)C(=O)NC(C)C` [Example 262, N-(2-butoxyethyl)-N-[5-(4,5-diphenyl-1H-imidazol-2-ylthio)pentyl]-N'-(1-methylethyl)-urea], at ACAT, half-maximal inhibition (IC50) was put at 840 nM.

On ACAT, `CCCCCCCN(CCN(C)CCSc1nc(-c2ccccc2)c(-c2ccccc2)[nH]1)C(=O)NC(C)C` [Example 102] gave a concentration for half-maximal inhibition (IC50) of 2400 nM.

In the case of `CCCCN(C)CCN(CCOCCSc1nc(-c2ccc(OC)cc2)c(-c2ccc(OC)cc2)[nH]1)C(=O)Nc1ccc(F)cc1F` [Example 32, N-[2-(2-(4,5-bis(4-methoxyphenyl)-1H-imidazol-2-ylthio)ethoxy)ethyl]-N-[2-(N-butyl-N-methylamino)ethyl]-N'-(2,4-difluorophenyl) urea], the concentration for half-maximal inhibition (IC50) against ACAT stood at 630 nM; in assay [1], 1500 nM.

`CCCCOCCN(CCCCCSc1nc(-c2ccccc2)c(-c2ccccc2)[nH]1)C(=O)Nc1ccc(F)cc1F` [Example 261, N-(2-butoxyethyl)-N'-(2,4-difluorophenyl)-N-[5-(4,5-diphenyl-1H-imidazol-2-ylthio)pentyl]-urea] gave an IC50 on ACAT of 1750 nM.

Consider `CCCCCCCN(CCNC(=O)CSc1nc(-c2ccc(OC)cc2)c(-c2ccc(OC)cc2)[nH]1)C(=O)Nc1ccc(F)cc1F` [Example 432], for which the IC50 was 800 nM against ACAT and 3750 nM in assay [1].

The molecule `CCN(CC)CCN(CCCCCSc1nc(-c2ccccc2)c(-c2ccccc2)[nH]1)C(=O)NC(C)C` [Example 1, N-[2-(diethylamino)ethyl]-N-[5-(4,5-diphenyl-1H-imidazol-2-ylthio)pentyl]-N'-(1-methylethyl)-urea] had an IC50 against ACAT of 580 nM.

For the molecule `COc1ccc(-c2nc(SCCCCCN(CCN3CCOCC3)C(=O)Nc3ccc(F)cc3F)[nH]c2-c2ccc(OC)cc2)cc1` [Example 162, N-[5-[4,5-bis(4-methoxyphenyl)-1H-imidazol-2-ylthio]pentyl]-N'-(2,4-difluorophenyl)-N-[2-(1-morpholinyl)ethyl]-urea], 1340 nM corresponded to half-maximal inhibition on ACAT (IC50).

On to `COCCOCCN(CCCCCSc1nc(-c2ccc(OC)cc2)c(-c2ccc(OC)cc2)[nH]1)C(=O)Nc1ccc(F)cc1F` [Example 303, N-[5-[4,5-bis(4-methoxyphenyl)-1H-imidazol-2-ylthio]pentyl]-N '-(2,4-difluorophenyl)-N-[2-(2-methoxyethoxy)ethyl]-urea], for which the midpoint of inhibition at ACAT, the IC50, lay at 250 nM.

Consider `CCN(CC)CCN(CCCCCSc1nc(-c2ccccc2)c(-c2ccccc2)[nH]1)C(=O)Nc1ccc(F)cc1F` [Example 2], for which half-maximal inhibition against ACAT (IC50) was put at 2180 nM.

As for `O=C(Nc1ccc(F)cc1F)N(CCCCCSc1nc(-c2ccccc2)c(-c2ccccc2)[nH]1)CCN1CCOCC1` [Example 161, N'-(2,4-difluorophenyl)-N-[5-(4,5-diphenyl-1H-imidazol-2-ylthio)pentyl]-N-[2-(4-morpholinyl)ethyl]-urea], the IC50 at ACAT is 880 nM; in assay [1], 66 nM.

In the case of `CCOCCOCCN(CCCCCSc1nc(-c2ccc(SC)cc2)c(-c2ccc(SC)cc2)[nH]1)C(=O)NC(C)C` [Example 325], the IC50 against ACAT was 41 nM.

Take `CC(C)NC(=O)N(CCCCCSc1nc(-c2ccccc2)c(-c2ccccc2)[nH]1)CCOCCO` [Example 282, N-[5-(4,5-diphenyl-1H-imidazol-2-ylthio)-pentyl]-N-[2-(2-hydroxyethoxy)-ethyl]-N'-(1-methylethyl)-urea]: at ACAT, the IC50 amounted to 6840 nM.

Consider `CCCCCCCN(CCN(C)CCSc1nc(-c2ccccc2)c(-c2ccccc2)[nH]1)C(=O)Nc1ccc(F)cc1F` [Example 101, N'-(2,4-difluorophenyl)-N-[2-[2-(4,5-diphenyl-1H-imidazol-2-ylthio)ethyl]-N-[methylamino]ethyl]-N-heptyl-urea], for which the IC50 against ACAT turned out to be 1470 nM.

Regarding `CCCCCCCN(CCOCCSc1nc(-c2ccc(OC)cc2)c(-c2ccc(OC)cc2)[nH]1)C(=O)Nc1ccc(F)cc1F` [Example 364], half-maximal inhibition at ACAT (IC50) required 500 nM.

As for `CN(CCSc1nc(-c2ccccc2)c(-c2ccccc2)[nH]1)CCN(CCN1CCOCC1)C(=O)Nc1ccc(F)cc1F` [Example 181], at ACAT, the IC50 stood at 2740 nM.

`COCCOCCN(CCCCCSc1nc(-c2ccc(OC)cc2)c(-c2ccc(OC)cc2)[nH]1)C(=O)NC(C)C` [Example 304, N-[5-[4,5-bis(4-methoxyphenyl)-1H-imidazol-2-ylthio]-pentyl]-N-[2-(2-methoxyethoxy)-ethyl]-N'-(1-methylethyl)-urea] registered a 50% inhibitory concentration (IC50) against ACAT of 360 nM.

Consider `O=C(Nc1ccc(F)cc1F)N(CCCCCSc1nc(-c2ccccc2)c(-c2ccccc2)[nH]1)CCOCCO` [Example 281], for which the half-maximal inhibitory concentration (IC50) at ACAT came to 6740 nM.

Molecule `CCCCCCCN(CCOCCSc1nc(-c2ccccc2)c(-c2ccccc2)[nH]1)C(=O)Nc1ccc(F)cc1F` [Example 361] came in with an IC50 at ACAT of 3980 nM.

`CC(C)NC(=O)N(CCN(C)CCSc1nc(-c2ccccc2)c(-c2ccccc2)[nH]1)CCN1CCOCC1` [Example 183]: the IC50 against ACAT stood at 6280 nM.

For the molecule `CCOCCOCCN(CCCCCSc1nc(-c2ccccc2)c(-c2ccccc2)[nH]1)C(=O)NC(C)C` [Example 322], 3020 nM corresponded to half-maximal inhibition on ACAT (IC50).

For the molecule `CCOCCOCCN(CCCCCSc1nc(-c2ccccc2)c(-c2ccccc2)[nH]1)C(=O)Nc1ccc(F)cc1F` [Example 321], at ACAT, the 50% inhibitory concentration (IC50) was determined as 4010 nM.

Regarding `COc1ccc(-c2nc(SCCCCCN(CCOCCO)C(=O)Nc3ccc(F)cc3F)[nH]c2-c2ccc(OC)cc2)cc1` [Example 283, N-[5-[4,5-bis(4-methoxyphenyl)-1H-imidazol-2-ylthio]pentyl]-N '-(2,4-difluorophenyl)-N-[2-(2-hydroxyethoxy)ethyl]-urea], half-maximal inhibition against ACAT (IC50) required 840 nM.

`CCCCCCCN(CCOCCSc1nc(-c2ccccc2)c(-c2ccccc2)[nH]1)C(=O)NC(C)C` [Example 362]: half-maximal inhibition against ACAT (IC50) required 990 nM.
